For 4 compounds, IC50 and viability results are on record in ChEMBL document CHEMBL5126508, “Therapeutic potential of quinazoline derivatives for Alzheimer's disease: A comprehensive review” (Eur J Med Chem, 2022).

Assay [1] deals with Cyclin-dependent kinase 2 (Homo sapiens, UniProt P24941). In words: Inhibition of CDK2 (unknown origin).
In assay [2] the target is Cyclin-dependent kinase 4 (Homo sapiens, UniProt P11802). Kind of assay: Inhibition of CDK4 (unknown origin).
Assay [3] has as its target Cyclin-dependent kinase 3 (Homo sapiens, UniProt Q00526). In words: Inhibition of CDK3 (unknown origin).
Assay [4] concerns the target Cyclin-dependent kinase 1 (Homo sapiens, UniProt P06493). In words: Inhibition of CDK1 (unknown origin).
Assay [5] deals with 3',5'-cyclic-AMP phosphodiesterase 4D (Homo sapiens, UniProt Q08499). Kind of assay: Inhibition of PDE4D2 (unknown origin).
3',5'-cyclic-AMP phosphodiesterase 4D, sequence (Q08499 whole entry): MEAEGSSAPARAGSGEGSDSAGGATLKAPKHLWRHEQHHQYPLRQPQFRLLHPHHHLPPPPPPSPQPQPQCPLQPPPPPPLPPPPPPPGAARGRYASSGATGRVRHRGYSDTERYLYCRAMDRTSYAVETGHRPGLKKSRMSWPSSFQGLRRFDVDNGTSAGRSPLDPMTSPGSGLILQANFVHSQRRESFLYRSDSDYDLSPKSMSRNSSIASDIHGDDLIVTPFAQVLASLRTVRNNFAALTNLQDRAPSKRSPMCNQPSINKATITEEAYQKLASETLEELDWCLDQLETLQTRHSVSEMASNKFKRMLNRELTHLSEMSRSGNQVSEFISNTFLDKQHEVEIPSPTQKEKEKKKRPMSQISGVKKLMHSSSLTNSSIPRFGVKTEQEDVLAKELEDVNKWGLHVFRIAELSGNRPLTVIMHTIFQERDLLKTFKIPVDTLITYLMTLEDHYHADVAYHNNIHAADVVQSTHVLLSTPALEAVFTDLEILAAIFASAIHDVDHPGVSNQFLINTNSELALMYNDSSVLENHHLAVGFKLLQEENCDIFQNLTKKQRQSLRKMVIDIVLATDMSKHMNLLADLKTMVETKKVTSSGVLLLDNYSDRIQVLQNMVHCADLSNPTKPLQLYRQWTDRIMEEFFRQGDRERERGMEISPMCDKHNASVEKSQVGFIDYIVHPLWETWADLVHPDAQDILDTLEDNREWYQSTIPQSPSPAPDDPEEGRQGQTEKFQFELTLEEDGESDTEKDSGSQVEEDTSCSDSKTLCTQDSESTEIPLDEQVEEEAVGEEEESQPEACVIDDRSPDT
The next assay deals with Phosphodiesterase 4 (Homo sapiens, UniProt P27815+Q08499+Q07343+Q08493). Kind of assay: Inhibition of PDE4 (unknown origin). It is filed as protein assay.
For a further assay, the target named is Acetylcholinesterase (Homo sapiens, UniProt P22303). Kind of assay: Inhibition of AChE (unknown origin) by Ellman's method. On the technique in general: Ellman's reagent forms a yellow product with free thiols.
Acetylcholinesterase, sequence (P22303 whole entry): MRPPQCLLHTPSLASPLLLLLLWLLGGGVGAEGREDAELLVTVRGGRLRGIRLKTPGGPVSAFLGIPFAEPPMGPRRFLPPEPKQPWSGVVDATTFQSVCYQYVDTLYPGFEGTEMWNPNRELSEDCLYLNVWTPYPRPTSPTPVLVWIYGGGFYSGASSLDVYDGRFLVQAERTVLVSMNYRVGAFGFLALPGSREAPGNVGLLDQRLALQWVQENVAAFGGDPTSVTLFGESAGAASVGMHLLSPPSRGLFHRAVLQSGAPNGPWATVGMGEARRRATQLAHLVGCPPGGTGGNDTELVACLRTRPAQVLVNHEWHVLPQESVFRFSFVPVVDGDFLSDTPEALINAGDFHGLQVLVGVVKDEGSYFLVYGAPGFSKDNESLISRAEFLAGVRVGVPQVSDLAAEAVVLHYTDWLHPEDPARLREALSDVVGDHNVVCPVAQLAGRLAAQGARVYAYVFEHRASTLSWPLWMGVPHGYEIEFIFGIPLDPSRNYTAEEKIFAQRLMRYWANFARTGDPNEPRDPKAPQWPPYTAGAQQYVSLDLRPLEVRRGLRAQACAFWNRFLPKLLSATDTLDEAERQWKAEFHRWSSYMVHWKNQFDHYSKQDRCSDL
For assay [6], the target named is Amyloid-beta precursor protein (Homo sapiens, UniProt P05067). Kind of assay: Inhibition of amyloid beta 1 to 42 (unknown origin) […].
Amyloid-beta precursor protein, sequence (P05067 whole entry): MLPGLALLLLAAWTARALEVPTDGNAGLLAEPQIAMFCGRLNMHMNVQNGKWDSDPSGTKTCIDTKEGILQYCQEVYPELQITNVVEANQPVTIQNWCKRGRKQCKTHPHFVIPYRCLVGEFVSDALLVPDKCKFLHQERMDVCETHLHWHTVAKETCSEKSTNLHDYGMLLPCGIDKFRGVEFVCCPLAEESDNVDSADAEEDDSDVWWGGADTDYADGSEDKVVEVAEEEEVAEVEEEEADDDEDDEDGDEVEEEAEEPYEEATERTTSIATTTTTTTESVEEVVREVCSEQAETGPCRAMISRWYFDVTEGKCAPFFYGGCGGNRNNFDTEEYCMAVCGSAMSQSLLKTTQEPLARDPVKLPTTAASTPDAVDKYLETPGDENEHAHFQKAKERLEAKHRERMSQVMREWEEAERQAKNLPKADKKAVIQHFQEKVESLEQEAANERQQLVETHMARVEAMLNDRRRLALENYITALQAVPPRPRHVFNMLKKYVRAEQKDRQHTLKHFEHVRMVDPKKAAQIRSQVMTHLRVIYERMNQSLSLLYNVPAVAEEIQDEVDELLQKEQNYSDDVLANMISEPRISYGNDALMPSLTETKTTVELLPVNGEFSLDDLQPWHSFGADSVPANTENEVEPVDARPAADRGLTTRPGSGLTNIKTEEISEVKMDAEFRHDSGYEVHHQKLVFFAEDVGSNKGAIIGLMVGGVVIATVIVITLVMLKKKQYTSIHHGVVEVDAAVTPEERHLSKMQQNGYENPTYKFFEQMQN
In another assay the target is Cholinesterase (Homo sapiens, UniProt P06276). Kind of assay: Inhibition of BuChE (unknown origin) by Ellman's method.
Cholinesterase, sequence (P06276 whole entry): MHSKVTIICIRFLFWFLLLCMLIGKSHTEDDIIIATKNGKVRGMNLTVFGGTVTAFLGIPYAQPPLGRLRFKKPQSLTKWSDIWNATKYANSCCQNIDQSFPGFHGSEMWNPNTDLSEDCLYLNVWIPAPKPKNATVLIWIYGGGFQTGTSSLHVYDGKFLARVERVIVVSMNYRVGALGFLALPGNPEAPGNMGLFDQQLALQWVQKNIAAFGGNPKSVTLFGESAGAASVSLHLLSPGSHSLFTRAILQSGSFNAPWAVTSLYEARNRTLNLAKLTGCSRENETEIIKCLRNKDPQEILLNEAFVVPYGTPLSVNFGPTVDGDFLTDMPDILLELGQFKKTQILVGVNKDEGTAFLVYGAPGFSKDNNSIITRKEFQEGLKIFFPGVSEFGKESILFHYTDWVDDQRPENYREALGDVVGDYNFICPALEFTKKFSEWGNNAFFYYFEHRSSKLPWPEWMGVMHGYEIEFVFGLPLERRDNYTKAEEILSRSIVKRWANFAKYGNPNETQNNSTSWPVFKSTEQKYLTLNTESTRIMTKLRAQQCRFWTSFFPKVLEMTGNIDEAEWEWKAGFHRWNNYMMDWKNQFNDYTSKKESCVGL
The target in assay [7] is T1, Amine oxidase [flavin-containing] A (Homo sapiens, UniProt P21397).
T1 sequence (P21397 whole entry): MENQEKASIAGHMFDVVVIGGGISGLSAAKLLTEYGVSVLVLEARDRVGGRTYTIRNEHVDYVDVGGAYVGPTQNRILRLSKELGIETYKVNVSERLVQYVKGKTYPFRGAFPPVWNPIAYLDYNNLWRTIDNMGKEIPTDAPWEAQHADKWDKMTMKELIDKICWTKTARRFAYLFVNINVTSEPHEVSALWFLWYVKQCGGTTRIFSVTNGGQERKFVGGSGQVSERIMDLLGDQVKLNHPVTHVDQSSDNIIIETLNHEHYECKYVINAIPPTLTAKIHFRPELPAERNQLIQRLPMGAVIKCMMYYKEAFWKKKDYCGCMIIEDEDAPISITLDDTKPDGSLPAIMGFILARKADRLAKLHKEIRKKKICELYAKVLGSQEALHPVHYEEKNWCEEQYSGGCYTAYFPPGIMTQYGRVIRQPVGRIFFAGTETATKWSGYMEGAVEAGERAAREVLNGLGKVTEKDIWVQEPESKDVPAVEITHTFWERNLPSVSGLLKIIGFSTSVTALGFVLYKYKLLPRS
In words: Inhibition of MAO-A (unknown origin).

Another assay concerns SH-SY5Y. Kind of assay: Cytotoxicity against human SH-SY5Y cells assessed as cell viability at 100 uM relative to control. It is filed as functional. The note with it: read-out: Activity.

Cyclin-dependent kinase 4, sequence (P11802 whole entry): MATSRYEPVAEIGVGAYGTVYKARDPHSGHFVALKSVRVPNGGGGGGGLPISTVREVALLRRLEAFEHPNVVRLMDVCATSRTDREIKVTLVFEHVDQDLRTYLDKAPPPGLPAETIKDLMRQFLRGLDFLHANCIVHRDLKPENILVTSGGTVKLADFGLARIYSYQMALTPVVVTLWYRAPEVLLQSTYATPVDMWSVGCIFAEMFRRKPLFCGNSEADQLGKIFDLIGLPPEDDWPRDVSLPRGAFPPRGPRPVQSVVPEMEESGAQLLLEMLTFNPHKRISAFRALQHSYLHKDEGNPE
Cyclin-dependent kinase 1, sequence (P06493 whole entry): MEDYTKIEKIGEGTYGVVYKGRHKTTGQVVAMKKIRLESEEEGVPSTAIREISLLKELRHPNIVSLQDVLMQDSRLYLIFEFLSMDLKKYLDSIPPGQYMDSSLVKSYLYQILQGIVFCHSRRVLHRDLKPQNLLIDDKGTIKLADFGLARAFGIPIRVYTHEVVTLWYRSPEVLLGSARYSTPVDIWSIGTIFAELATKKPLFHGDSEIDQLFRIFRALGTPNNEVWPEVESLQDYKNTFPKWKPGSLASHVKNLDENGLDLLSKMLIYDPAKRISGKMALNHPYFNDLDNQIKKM
Cyclin-dependent kinase 3, sequence (Q00526 whole entry): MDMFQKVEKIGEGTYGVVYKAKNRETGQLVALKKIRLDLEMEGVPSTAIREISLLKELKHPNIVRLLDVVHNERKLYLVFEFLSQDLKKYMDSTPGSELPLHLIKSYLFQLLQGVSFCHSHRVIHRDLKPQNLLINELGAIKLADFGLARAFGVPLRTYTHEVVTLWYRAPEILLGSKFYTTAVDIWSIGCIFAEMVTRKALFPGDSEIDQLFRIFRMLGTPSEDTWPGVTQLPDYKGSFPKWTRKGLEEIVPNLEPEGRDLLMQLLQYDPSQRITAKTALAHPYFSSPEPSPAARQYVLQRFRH

For orientation: IC50 means the midpoint of a concentration-inhibition curve. Lower therefore signals higher potency. For `COC(=N)c1nc2ccc3ncnc(Nc4ccc(Cl)cc4Cl)c3c2s1`, the IC50 in assay [1] is 0.0888 µM; in [2], 0.059 µM; in assay [3], more than 10 µM; in assay [4] it was 0.0228 µM.

On to `CSc1nc2ccccc2c(=O)n1-c1c(F)cccc1F`, for which the IC50 (in assay [5]; against Phosphodiesterase 4) was 3.5 µM throughout.

For `COc1cc2c(Nc3ccc(C(=O)/C=C/c4nc(C)c(C)nc4C)cc3)ncnc2c(OC)c1OC`, the IC50 on Acetylcholinesterase came to 0.1 µM; in [6] it was 26.7 µM; against Cholinesterase it was 22.4 µM; in assay [7], 47.4 µM.

Regarding `O=C(NCCc1ccc(O)cc1)C1CCC2=Nc3ccc(Br)cc3CN21` (stereo unspecified), in the assay on SH-SY5Y, the viability at 100 µM stood at 78.6%.
